Patent US20100099676A1 (SHIONOGI & CO., LTD., priority 2006, published 2010)

What follows are compounds tested against T1, MMP-13 (Homo sapiens, UniProt P45452) (assay: Enzyme inhibiting activity of MMPs, fluorogenic peptide substrate). Details: compounds not described in the Tables; read-out: inhibiting activity for MMP-13.
T1 construct: purchased Calbiochem (EMD/MERCK Biosciences)
Assay type: biochemical
Protocol: Various human MMPs (MMP-2, MMP-9 and MMP-13) were purchased from Calbiochem (EMD/MERCK Biosciences).
Since the purchased MMP-13 was Proenzyme, the activated one was used, which was incubated at 37° C. for 2 hours after the successive addition of an assay buffer (containing 50 mM Tris-HCl (pH7.6), 0.3 M NaCl, 10 mM CaCl2, 0.005% Brij35) and APMA (final concentration 1 mM) to the enzyme solution.
The enzyme activity of MMPs was measured according to the method described in C. Graham Knight, Frances Willenbrock and Gillian Murphy: A novel coumarin-labelled peptide for sensitive continuous assays of the matrix metalloproteinases: FEBS LETT., 296, (1992), 263-266. As a substrate, MOCAc-Pro-Leu-Gly-Leu-A2Pr(DNP)- Ala-Arg-NH2 (Peptide Institute, Inc. Osaka, Japan) was used, and the following four assays are performed per compound (inhibitor) for measuring the inhibiting activity.
(A) Substrate (synthetic substrate), enzyme (MMPs), inhibitor
(B) Substrate (synthetic substrate), inhibitor
(C) Substrate (synthetic substrate), enzyme (MMPs)
(D) Substrate (synthetic substrate)
In each assay, the fluorescent intensity was measured, and inhibition (%) was calculated by the following equation.
Inhibition (%)=[I−(A−B)/(C−D)]×100
IC50 indicates a concentration at which inhibition (%) is 50%.
`C[C@@H](NS(=O)(=O)N1CCN(c2ccc(C#Cc3cccc(C(=O)NCc4ccccc4)n3)cc2)CC1)C(=O)O` [Compound I-18, (R)-2-{4-[4-(6-benzylcarbamoylpyridine 2-ylethynyl)-phenyl]-piperazine-1-sulfonylamino}-proponic acid] was tested, and the IC50 was < 10 nM.
With `C[C@@H](NS(=O)(=O)N1CCN(c2ccc(C#Cc3ccnc(C(=O)NCc4ccccc4)c3)cc2)CC1)C(=O)O` [Compound I-19, (R)-2-{4-[4-(2-benzylcarbamoylpyridin-4-ylethynyl)-phenyl]-piperazine-1-sulfonylamino}-proponic acid] the IC50 was < 10 nM.
Work on `CCC[C@H](NS(=O)(=O)N1CCN(c2ccc(C#Cc3cccc(-c4ncc(C)o4)c3)cc2)CC1)C(=O)O` [Compound I-26, (S)-2-(4-{4-[3-(5-methyloxazol-2-yl)-phenylethynyl]-phenyl}-piperazine-1-sulfonylamino)-pentanoic acid] yielded an IC50 of 10 to 100 nM.
`Cc1cnc(-c2cccc(C#Cc3ccc(N4CCN(S(=O)(=O)N[C@@H](C(=O)O)C(C)C)CC4)cc3)c2)o1` [Compound I-27, (R)-3-methyl-2-(4-{4-[3-(5-methyloxazol-2-yl)-phenylethynyl]-phenyl}-piperazine-1-sulfonylamino)-butanoic acid] gave an IC50 of 10 to 100 nM.
For `Cc1cc(CNC(=O)c2cccc(C#Cc3ccc(N4CCN(S(=O)(=O)N[C@H](C)C(=O)O)CC4)cc3)c2)ccc1F` [Compound I-28, (R)-2-(4-{4-[3-(4-fluoro3-methylbenzylcarbamoyl)-phenylethynyl]-phenyl}-piperazine-1-sulfonylamino)-proponic acid], the IC50 was < 10 nM.
Compound `Cc1cc(CNC(=O)c2cccc(/C=C/c3ccc(N4CCN(S(=O)(=O)N[C@H](C)C(=O)O)CC4)cc3)c2)ccc1F` [Compound I-29, (R)-2-[4-(4-{(E)-2-[3-(4-fluoro3-methylbenzylcarbamoyl)-phenyl]-vinyl}-phenyl)-piperazine-1-sulfonylamino]-proponic acid] has an IC50 of 10 to 100 nM.
For `C[C@@H](NS(=O)(=O)N1CCN(c2ccc(C#Cc3cccc(C(=O)NCc4ccc(Cl)cc4)c3)cc2)CC1)C(=O)O` [Compound I-32, (R)-2-(4-{4-[3-(4-chlorobenzylcarbamoyl)-phenylethynyl]-phenyl}-piperazine-1-sulfonylamino)-proponic acid], the IC50 was < 10 nM.
`CC(C)C[C@H](NS(=O)(=O)N1CCN(c2ccc(C#Cc3ccc4cccc(C(N)=O)c4c3)cc2)CC1)C(=O)O` [Compound I-55, (S)-2-{4-[4-(8-carbamoylnaphthalen-2-ylethynyl)-phenyl]-piperazine-1-sulfonylamino}-4-methylpentanoic acid] gave an IC50 of 10 to 100 nM.
`C[C@@H](NS(=O)(=O)N1CCN(c2ccc(C#Cc3ccc4cccc(C(=O)NCCF)c4c3)cc2)CC1)C(=O)O` [Compound I-56, (R)-2-(4-{4-[8-(2-fluoroethylcarbamoyl)-naphthalen-2-ylethynyl]-phenyl}-piperazine-1-sulfonylamino)-proponic acid] was tested, and the IC50 was < 10 nM.
`CC(C)[C@H](NS(=O)(=O)N1CCN(c2ccc(C#Cc3ccc4cccc(C(N)=O)c4c3)cc2)CC1)C(=O)O` [Compound I-58, (S)-2-{4-[4-(8-carbamoylnaphthalen-2-ylethynyl)-phenyl]-piperazine-1-sulfonylamino}-3-methylbutanoic acid] was tested, and the IC50 was 10 to 100 nM.
`CCC[C@H](NS(=O)(=O)N1CCN(c2ccc(/C=C/c3ccc4cccc(C(N)=O)c4c3)cc2)CC1)C(=O)O` [Compound I-59, (S)-2-(4-{4-[(E)-2-(8-carbamoylnaphthalen-2-yl)-vinyl]-phenyl}-piperazine-1-sulfonylamino)-pentanoic acid] was tested, and the IC50 was 10 to 100 nM.
`CC(C)C[C@@H](NS(=O)(=O)N1CCN(c2ccc(C#Cc3ccc4cccc(C(N)=O)c4c3)cc2)CC1)C(=O)O` [Compound I-60, (R)-2-{4-[4-(8-carbamoylnaphthalen-2-ylethynyl)-phenyl]-piperazine-1-sulfonylamino}-4-methylpentanoic acid] showed an IC50 of 10 to 100 nM.
